In publication PMC9841533, “Microtubule-Stabilizing 1,2,4-Triazolo[1,5-a]pyrimidines as Candidate Therapeutics for Neurodegenerative Disease: Matched Molecular Pair Analyses and Computational Studies Reveal New Structure–Activity Insights” (Journal of Medicinal Chemistry, 2022):
Structures can show the parent of a compound that is named as a salt. Where two headings read alike, the source gives them in different places.

Key:
[1] = test system: total α-tubulin (α-Tub) levels in QBI293 cells; test: QBI293 cell assay: total α-tubulin ELISA; type: cell-based
Procedure: (§1) All test compounds were initially screened in the same cell-based (QBI293) assay of MT stabilization used in our previous SAR studies[11],[12] so as to allow direct comparison with literature data. Changes in levels of acetylated α-tubulin (AcTub) and total α-tubulin (α-Tub), relative to vehicle-treated negative control cells, were determined after 4 h of incubation with test compounds at 1 and 10 μM. To account for possible day-to-day differences in the responsiveness of cells to MT-stabilizing treatment, compound-dependent changes in AcTub levels relative to DMSO-treated cells were also normalized to the corresponding changes caused by 100 nM of 5 that was used as a positive control. In addition, docking studies, binding free energy calculations, and in selected cases, molecular dynamic simulations were conducted using an X-ray structure of the vinca and seventh sites (PDB: 5NJH,[10]7CLD[13]). […] For selected compounds, additional studies included testing in the QBI293 cell AcTub assay at additional compound concentrations, and/or evaluation of test compounds for their ability to prevent MT collapse in primary neuron cultures treated with the phosphatase inhibitor, okadaic […] (OA). Finally, cytotoxicity studies in QBI293 and HeLa cells were also conducted for representative examples (Supporting Information).
(§2) Compound-induced changes in acetylated-tubulin and α-tubulin in QBI293 cells or primary mouse or rat neurons were as previously described.[11],[12] […] The plated cells were incubated overnight, after which the medium was aspirated and fresh medium containing vehicle (0.25–0.3% DMSO) or test compound was added. Test compounds were prepared as 4–20 mM stock solutions in 100% DMSO, and these were diluted in culture medium prior to addition to the QBI293 cells. After 4 h incubation, whole-cell extracts were prepared from the QBI293 cells as described[11] and the supernatant fraction from each sample was assessed for protein content by bicinchoninic acid (BCA) assay. The amount of acetyl-tubulin (AcTub) and α-tubulin (αTub) within the cell extract samples was quantified using specific enzyme-linked immunosorbent assays (ELISA), as previously described.[11] Acetyl-tubulin levels were determined in a similar manner in rat or mouse cortical neuron cultures in which embryonic dissociated cortical neurons were plated at 3 × 10^5 cells/well in poly-D-lysine-coated 12-well plates, essentially as previously described.[11] […] Culture homogenates were prepared for the determination of AcTub levels by ELISA as previously described.[11]

[2] = test system: acetylated α-tubulin (AcTub) levels in QBI293 cells; test: QBI293 cell assay of MT stabilization: acetylated α-tubulin ELISA; type: cell-based
Procedure: as §1, §2

[3] = 4 h, 1 uM compound, read-out: AlfaTub (1uM)
[4] = 4 h, 10 uM compound, read-out: AlfaTub (10 uM)
[5] = 4 h incubation, 1 μM, read-out: α-Tub 1 μM, fold-change compared to vehicle (DMSO)-treated cells
[6] = 4 h incubation, 10 μM, read-out: α-Tub 10 μM, fold-change compared to vehicle (DMSO)-treated cells
[7] = 4 h, 1 uM compound, read-out: AcTub (1uM)
[8] = 4 h, 10 uM compound, read-out: AcTub (10 uM)
[9] = 4 h incubation, 1 μM, read-out: AcTub 1 μM, fold-change compared to vehicle (DMSO)-treated cells
[10] = 4 h incubation, 10 μM, read-out: AcTub 10 μM, fold-change compared to vehicle (DMSO)-treated cells

Row | Compound | fold induction at 1 µM [1, 3] | fold induction at 10 µM [1, 4] | fold induction at 1 µM [1, 5] | fold induction at 10 µM [1, 6] | AcTub (1 uM - normalized) ([2]; 1 uM compound) | AcTub (10 uM - normalized) ([2]; 10 uM compound) | fold induction at 1 µM [2, 7] | fold induction at 10 µM [2, 8] | AcTub 1 μM, fold-change compared to positive control compound 5 (100 nM) (in parentheses) ([2]; 4 h incubation, 1 μM) [fold-change] | fold induction at 1 µM [2, 9] | AcTub 10 μM, fold-change compared to positive control compound 5 (100 nM) (in parentheses) ([2]; 4 h incubation, 10 μM) [fold-change] | fold induction at 10 µM [2, 10] | total α-Tub at higher (30 μM) concentration ([1]; 4 h, 30 μM)
1 | CN(C)CCCOc1cc(F)c(-c2c(Cl)nc3ncnn3c2NCC2(C(F)(F)F)CC2)c(F)c1 [Compound 29, 5-Chloro-6-(4-(3-(dimethylamino)propoxy)-2,6-difluorophenyl)-N-((1-(trifluoromethyl)cyclopropyl)methyl)-[1,2,4]triazolo[1,5-a]pyrimidin-7-amine] | 0.82 | 1.24 | 0.82 ± 0.01 | 1.24 ± 0.13 | 0.63 | 0.14 | 3.75 | 0.81 | 0.63 | 3.75 ± 0.13 | 0.14 | 0.81 ± 0.09 | –
2 | CN(C)CCCOc1cc(F)c(-c2c(Cl)nc3ncnn3c2NCC2CCC2)c(F)c1 [Compound 30, 5-Chloro-N-(cyclobutylmethyl)-6-(4-(3-(dimethylamino)propoxy)-2,6-difluorophenyl)-[1,2,4]triazolo[1,5-a]pyrimidin-7-amine] | 0.8 | 0.93 | 0.8 ± 0.03 | 0.93 ± 0.05 | 0.61 | 0.15 | 1.49 | 0.37 | 0.61 | 1.49 ± 0.18 | 0.15 | 0.37 ± 0.12 | –
3 | C#Cc1cc(F)c(-c2c(Cl)nc3ncnn3c2N[C@H](C)C(C)C)c(F)c1 [Compound 34, (R)-5-Chloro-6-(4-ethynyl-2,6-difluorophenyl)-N-(3-methylbutan-2-yl)-[1,2,4]triazolo[1,5-a]pyrimidin-7-amine] | 0.98 | 1.03 | 0.98 ± 0.002 | 1.03 ± 0.008 | 0.39 | 0.88 | 3.56 | 8.02 | 0.39 | 3.56 ± 0.27 | 0.88 | 8.02 ± 0.25 | –
4 | C[C@H](Nc1c(-c2c(F)cc(C#CCCO)cc2F)c(Cl)nc2ncnn12)C(F)(F)F [Compound 42, (S)-4-(4-(5-Chloro-7-((1,1,1-trifluoropropan-2-yl)amino)-[1,2,4]triazolo[1,5-a]pyrimidin-6-yl)-3,5-difluorophenyl)but-3-yn-1-ol] | 0.88 | 0.69 | 0.88 ± 0.01 | 0.69 ± 0.02 | 0.23 | 0.92 | 1.62 | 6.4 | 0.23 | 1.62 ± 0.05 | 0.92 | 6.4 ± 0.32 | –
5 | C[C@H](Nc1c(-c2c(F)cc(C#CCCCO)cc2F)c(Cl)nc2ncnn12)C(F)(F)F [Compound 43, (S)-5-(4-(5-Chloro-7-((1,1,1-trifluoropropan-2-yl)amino)-[1,2,4]triazolo[1,5-a]pyrimidin-6-yl)-3,5-difluorophenyl)pent-4-yn-1-ol] | 0.93 | 0.87 | 0.93 ± 0.02 | 0.87 ± 0.03 | 2.29 | 1.93 | 17.1 | 14.4 | 2.29 | 17.1 ± 0.5 | 1.93 | 14.4 ± 0.6 | reduction in total tubulin levels could be detected only at higher concentrations
6 | C[C@H](Nc1c(-c2c(F)cc(C#CCCN(C)C)cc2F)c(Cl)nc2ncnn12)C(F)(F)F [Compound 44, (S)-5-Chloro-6-(4-(4-(dimethylamino)but-1-yn-1-yl)-2,6-difluorophenyl)-N-(1,1,1-trifluoropropan-2-yl)-[1,2,4]triazolo[1,5-a]pyrimidin-7-amine] | 0.77 | 0.93 | 0.77 ± 0.04 | 0.93 ± 0.03 | 2.01 | 1.17 | 10.9 | 6.33 | 2.01 | 10.9 ± 0.24 | 1.17 | 6.33 ± 0.22 | –
7 | CC(C)[C@@H](C)Nc1c(-c2c(F)cc(C#CCN(C)C)cc2F)c(Cl)nc2ncnn12 [Compound 47, (R)-5-Chloro-6-(4-(3-(dimethylamino)prop-1-yn-1-yl)-2,6-difluorophenyl)-N-(3-methylbutan-2-yl)-[1,2,4]triazolo[1,5-a]pyrimidin-7-amine] | 0.98 | 1.03 | 0.98 ± 0.04 | 1.03 ± 0.04 | 0.40 | 1.4 | 2.21 | 7.7 | 0.40 | 2.21 ± 0.6 | 1.40 | 7.68 ± 0.85 | –
8 | CNCC#Cc1cc(F)c(-c2c(Cl)nc3ncnn3c2N[C@H](C)C(C)C)c(F)c1 [Compound 51, (R)-5-Chloro-6-(2,6-difluoro-4-(3-(methylamino)prop-1-yn-1-yl)phenyl)-N-(3-methylbutan-2-yl)-[1,2,4]triazolo[1,5-a]pyrimidin-7-amine Hydrochloride] | 0.96 | 0.96 | 0.96 ± 0.01 | 0.96 ± 0.03 | 0.27 | 0.79 | 1.98 | 5.92 | 0.27 | 1.98 ± 0.09 | 0.79 | 5.92 ± 0.14 | –
9 | CC(C)[C@@H](C)Nc1c(-c2c(F)cc(C#CCCN(C)C)cc2F)c(Cl)nc2ncnn12 [Compound 52, (R)-5-Chloro-6-(4-(4-(dimethylamino)but-1-yn-1-yl)-2,6-difluorophenyl)-N-(3-methylbutan-2-yl)-[1,2,4]triazolo[1,5-a]pyrimidin-7-amine 2,2,2-Trifluoroacetate] | 1 | 1.15 | 1 ± 0.02 | 1.15 ± 0.02 | 1.75 | 1.24 | 9.5 | 6.7 | 1.75 | 9.5 ± 0.22 | 1.24 | 6.7 ± 0.5 | –
